From ChEMBL document CHEMBL1201862, “PubChem BioAssay data set” (2004) come the findings set out here.

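Protocol summary: plate cells (96-well), add compound at 5 concentrations, incubate 48 h, interpolate endpoints linearly. At the GI50, growth is halved.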 Activity calls are given as the source filed them. Rule as the data show it: active = GI50 up to about 1.1 µM and inactive = higher.

Common to all, as to experiment: growth of human tumour cells (NCI), 48 h
Assay [1] concerns COLO 205.
Assay [2] has as its system HL-60.
The subject of assay [3] is KM12.
In assay [4] the test system is M14.
Assay [5] has as its system MOLT-4.
Assay [6] relates to NCI-H522.
Assay [7] relates to OVCAR-8.
Assay [8] has as its system RPMI-8226.
The test system of assay [9] is SF-295.
For assay [10], the system named is SF-539.
Assay [11] concerns SK-MEL-2.
The subject of assay [12] is SK-MEL-5.
Assay [13] deals with SNB-75.
The test system of assay [14] is SW-620.
The subject of assay [15] is UACC-62.
The test system of assay [16] is OVCAR-4.
The subject of assay [17] is UACC-257.

Turning to `[N-]=[N+]=NC(CBr)c1cn([C@H]2C[C@H](O)[C@@H](CO)O2)c(=O)[nH]c1=O` (stereo partly drawn), the GI50 in [1], in assay [2], in assay [3], in assay [4], in [5] and in assay [6] was > 100 µM (inactive) in each case. The GI50 in [7], in assay [8], in [9], in [10], in assay [11] and in assay [12] was > 100 µM (inactive) throughout. Further, the GI50 in assay [13], in assay [14] and in assay [15] was > 100 µM (inactive) in each case.

For the compound `Cn1nc(-c2ccccc2)c(C(=O)/C=C/c2ccc(Cl)cc2)c(N2CCOCC2)c1=O`, the GI50 in [1] was 1.99 µM (inactive); in assay [2], 1.85 µM (inactive); in assay [4], 3.98 µM (inactive); in [5], 0.752 µM (active); in assay [6], 2.43 µM (inactive); in assay [7], 4.13 µM (inactive). For the same compound, the GI50 in [8] is 2.34 µM (inactive); in assay [9], 0.412 µM (active); in [10], 2.5 µM (inactive); in assay [12], 4.98 µM (inactive); in [14] it was 4.12 µM (inactive); in assay [15], 3.27 µM (inactive).

With `COc1ccc(C(=O)C(C(=O)C(=O)Nc2nc3ccc(OC)cc3s2)c2ccc(OC)cc2)cc1` (stereo not drawn), the GI50 in [1] is > 100 µM (inactive); in [2], 75.2 µM (inactive); in assay [3], > 100 µM (inactive); in assay [4] it was > 100 µM (inactive); in [5], > 100 µM (inactive); in assay [16], > 100 µM (inactive). Besides, the GI50 was > 100 µM (inactive) in [7]; > 100 µM (inactive) in [8]; > 100 µM (inactive) in assay [9]; > 100 µM (inactive) in [10]; > 100 µM (inactive) in assay [11]; 55.2 µM (inactive) in [12]. Moreover, the GI50 was 26.5 µM (inactive) in [13], > 100 µM (inactive) in assay [14], 63.2 µM (inactive) in [17] and > 100 µM (inactive) in assay [15].

For the compound `O=C(O)CNc1c2ccccc2[n+]([O-])c2ccccc12`, the GI50 in [1] is 72.3 µM (inactive); in assay [2] it was 18.7 µM (inactive); in assay [3] it was > 100 µM (inactive); in [4] it was > 100 µM (inactive); in assay [5], 69.3 µM (inactive); in assay [6] it was 50.1 µM (inactive). Further, the GI50 is 94.2 µM (inactive) in assay [16]; 78.7 µM (inactive) in assay [7]; 31.8 µM (inactive) in assay [8]; > 100 µM (inactive) in assay [9]; > 100 µM (inactive) in [11]; 45.5 µM (inactive) in [12]. The GI50 was 76.2 µM (inactive) in assay [13], > 100 µM (inactive) in assay [14], > 100 µM (inactive) in [17] and 67.8 µM (inactive) in assay [15].

Turning to `CN1C(=O)C2C3C=C4c5ccccc5N(c5ccccc5)C4(C2C1=O)[C@H]1C(=O)N(C)C(=O)[C@@H]31` (stereo partly drawn), the GI50 in [1], in assay [2], in [3], in assay [4], in assay [5] and in assay [6] was > 100 µM (inactive) each time. Further, the GI50 in assay [16], in assay [7], in assay [8], in assay [9], in [11] and in assay [13] was > 100 µM (inactive) throughout. The GI50 in assay [14], in assay [17] and in assay [15] was > 100 µM (inactive) in each case.

`CCOC(=O)N1C(c2ccccc2)C=CC(c2ccccc2)N1C(=O)OCC` (stereo not drawn): the GI50 in [1], in assay [3], in assay [16], in assay [7], in assay [8] and in [9] was > 100 µM (inactive) throughout. For the same compound, the GI50 was > 100 µM (inactive) in [10]; > 100 µM (inactive) in assay [11]; > 100 µM (inactive) in assay [12]; 42.9 µM (inactive) in [13]; > 100 µM (inactive) in assay [14]; > 100 µM (inactive) in assay [17]. Moreover, the GI50 in assay [15] is > 100 µM (inactive).

Turning to `OCCc1cnco1`, the GI50 in assay [1], in assay [2], in assay [3], in [4], in [5] and in assay [6] was > 100 µM (inactive) in each case. Moreover, the GI50 in [16], in assay [7], in assay [8], in [9], in [10] and in [12] was > 100 µM (inactive) in each case. In addition, the GI50 in assay [13], in [14] and in assay [15] was > 100 µM (inactive) in each case.

As for `COc1ccc(C(=O)NCCN(C)C)c2nc3ccccc3nc12`, the GI50 in assay [1] is 3.46 µM (inactive); in [3], 4.82 µM (inactive); in assay [4], 5.37 µM (inactive); in [5], 1.94 µM (inactive); in assay [6], 11.7 µM (inactive); in assay [16] it was 4.09 µM (inactive). In addition, the GI50 in [7] is 4.3 µM (inactive); in [8] it was 3.21 µM (inactive); in assay [9], 6.82 µM (inactive); in [10], 4.57 µM (inactive); in assay [11], 4.01 µM (inactive); in assay [12], 4.81 µM (inactive). For the same compound, the GI50 in assay [13] was 8.11 µM (inactive); in assay [14], 2.7 µM (inactive); in [17], 3.56 µM (inactive); in assay [15], 5.38 µM (inactive).

For `CC1(C)CC(/C=C2/OC(=O)c3ccccc32)=C(C(N)=O)C(=O)O1`, the GI50 in assay [1] was 30.8 µM (inactive); in [3], > 100 µM (inactive); in assay [4], > 100 µM (inactive); in assay [5], > 100 µM (inactive); in assay [6], > 100 µM (inactive); in [16], 72.1 µM (inactive). Also, the GI50 in assay [7], in assay [8], in assay [9], in [10], in assay [11] and in [12] was > 100 µM (inactive) in each case. In addition, the GI50 in assay [13], in assay [14], in assay [17] and in assay [15] was > 100 µM (inactive) each time.

On to `COC(=O)Cc1cc(=O)n2c3ccccc3n(C)c2c1C#N`, for which the GI50 in [1], in [2], in [3], in assay [4], in [5] and in [16] was > 100 µM (inactive) each time. In addition, the GI50 in assay [7] was > 100 µM (inactive); in [8] it was > 100 µM (inactive); in assay [9], > 100 µM (inactive); in [10], > 100 µM (inactive); in [11] it was > 100 µM (inactive); in assay [12] it was 52.2 µM (inactive). The GI50 is 68.7 µM (inactive) in assay [13], > 100 µM (inactive) in assay [14] and > 100 µM (inactive) in assay [17].

`CC(N)Cc1ccc(C(=O)Cl)cc1` (stereo not drawn): the GI50 in assay [1], in assay [3], in assay [4], in assay [5], in assay [6] and in assay [16] was > 100 µM (inactive) throughout. Besides, the GI50 in assay [7], in assay [8], in assay [9], in assay [10], in assay [11] and in assay [12] was > 100 µM (inactive) each time. Besides, the GI50 in assay [13], in [14], in assay [17] and in [15] was > 100 µM (inactive) in each case.

As for `CN(C(=O)C12C3C4C1C1C2C3C41C(=O)N(C)C(C)(C)C)C(C)(C)C` (stereo not drawn), the GI50 in assay [1], in [2], in assay [4], in assay [5], in assay [6] and in assay [7] was > 50 µM (inactive) throughout. The GI50 in assay [9] is > 50 µM (inactive); in assay [10] it was > 50 µM (inactive); in [12], > 50 µM (inactive); in assay [13], 21.6 µM (inactive); in assay [14] it was > 50 µM (inactive); in assay [15], > 50 µM (inactive).

Take `c1ccc2cc3[s+]snc3cc2c1`: the GI50 in [1], in assay [2], in [3], in assay [4], in assay [5] and in assay [6] was > 100 µM (inactive) in each case. The GI50 in assay [16] is > 100 µM (inactive); in assay [7] it was > 100 µM (inactive); in assay [9], > 100 µM (inactive); in assay [10], > 100 µM (inactive); in [11] it was > 100 µM (inactive); in assay [12] it was 97.9 µM (inactive). For the same compound, the GI50 in [13], in assay [14], in assay [17] and in assay [15] was > 100 µM (inactive) in each case.
